Source: ChEMBL document CHEMBL1201862, “PubChem BioAssay data set” (2004)
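Compound exposure: 48 hours, 5 concentrations, 96-well plates. GI50 = concentration required for 50% inhibition of growth.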 Calls of active or inactive are those of the source. No stated cut-off is given here; in the data, active = GI50 up to about 1.1 µM and inactive = higher. Peptide text beside a SMILES is read from it. * marks the point of attachment. Trt = c1ccc(C(c2ccccc2)(c2ccccc2)*)cc1; Cbz = O=C(OCc1ccccc1)*

Legend:
Assay in all cases: NCI tumour cell line growth inhibition, 48 h
OVCAR-8 = test system: OVCAR-8
RPMI-8226 = test system: RPMI-8226
Malme-3M = test system: Malme-3M
SF-539 = test system: SF-539
DU-145 = test system: DU-145
NCI-H23 = test system: NCI-H23
NCI-H460 = test system: NCI-H460
SK-MEL-28 = test system: SK-MEL-28
TK-10 = test system: TK-10
A549 = test system: A549
CCRF-CEM = test system: CCRF-CEM
SK-MEL-5 = test system: SK-MEL-5
K562 = test system: K562
ACHN = test system: ACHN
MDA-MB-231 = test system: MDA-MB-231
UACC-257 = test system: UACC-257
OVCAR-3 = test system: OVCAR-3
HL-60 = test system: HL-60
HT-29 = test system: HT-29
EKVX = test system: EKVX
HCT-116 = test system: HCT-116
OVCAR-4 = test system: OVCAR-4
LOX IMVI = test system: LOX IMVI
U-251 = test system: U-251
UACC-62 = test system: UACC-62
NCI-H226 = test system: NCI-H226
SK-MEL-2 = test system: SK-MEL-2
COLO 205 = test system: COLO 205
M14 = test system: M14
HCT-15 = test system: HCT-15
MDA-MB-435 = test system: MDA-MB-435
SR = test system: SR
PC-3 = test system: PC-3
OVCAR-5 = test system: OVCAR-5
SNB-19 = test system: SNB-19
RXF 393 = test system: RXF 393
CAKI-1 = test system: CAKI-1
HCC 2998 = test system: HCC 2998
MDA-N = test system: MDA-N
SN12C = test system: SN12C
HOP-92 = test system: HOP-92
A498 = test system: A498
MCF7 = test system: MCF7
786-0 = test system: 786-0
Hs-578T = test system: Hs-578T
T47D = test system: T47D
SF-295 = test system: SF-295
MOLT-4 = test system: MOLT-4
SK-OV-3 = test system: SK-OV-3
SW-620 = test system: SW-620
NCI-H522 = test system: NCI-H522
SNB-75 = test system: SNB-75
KM12 = test system: KM12
NCI/ADR-RES = test system: NCI/ADR-RES
IGROV-1 = test system: IGROV-1
HOP-62 = test system: HOP-62
UO-31 = test system: UO-31
SF-268 = test system: SF-268

`CC(=O)c1cnc2oc3ccc(O)cc3c2c1-c1ccccc1` was tested, and the GI50 (OVCAR-8) was 29.4 µM (inactive), the GI50 (RPMI-8226) was 18.8 µM (inactive) and the GI50 (Malme-3M) was 15.5 µM (inactive). For the same compound, the GI50 (SF-539) was 15 µM (inactive), the GI50 (DU-145) was 32.1 µM (inactive) and the GI50 (NCI-H23) was 46.1 µM (inactive). For the same compound, the GI50 (NCI-H460) was 33.5 µM (inactive), the GI50 (SK-MEL-28) was 17.5 µM (inactive) and the GI50 (TK-10) was 28.6 µM (inactive). For the same compound, the GI50 (A549) was 47.1 µM (inactive), the GI50 (CCRF-CEM) was 45 µM (inactive) and the GI50 (SK-MEL-5) was 22.2 µM (inactive). For the same compound, the GI50 (K562) was 41.6 µM (inactive), the GI50 (ACHN) was 21.1 µM (inactive) and the GI50 (MDA-MB-231) was 25.2 µM (inactive). The GI50 (UACC-257) was 65.2 µM (inactive), the GI50 (OVCAR-3) was 17.3 µM (inactive) and the GI50 (HL-60) was 37.5 µM (inactive). For the same compound, the GI50 (HT-29) was 95.5 µM (inactive), the GI50 (EKVX) was 23.9 µM (inactive) and the GI50 (HCT-116) was 57.1 µM (inactive). For the same compound, the GI50 (OVCAR-4) was 15 µM (inactive), the GI50 (LOX IMVI) was 99.1 µM (inactive) and the GI50 (U-251) was 52.4 µM (inactive). The GI50 (UACC-62) was 20.5 µM (inactive), the GI50 (NCI-H226) was 35.6 µM (inactive) and the GI50 (SK-MEL-2) was 22.6 µM (inactive). The GI50 (COLO 205) was 30.3 µM (inactive), the GI50 (M14) was > 100 µM (inactive) and the GI50 (HCT-15) was 58.1 µM. For the same compound, the GI50 (MDA-MB-435) was 64.9 µM (inactive), the GI50 (SR) was 33.3 µM (inactive) and the GI50 (PC-3) was 21.4 µM (inactive). The GI50 (OVCAR-5) was 71.6 µM (inactive), the GI50 (SNB-19) was 37.3 µM (inactive) and the GI50 (RXF 393) was 25.3 µM (inactive). The GI50 (CAKI-1) was 29.4 µM (inactive), the GI50 (HCC 2998) was 38 µM (inactive) and the GI50 (MDA-N) was 40.1 µM (inactive). For the same compound, the GI50 (SN12C) was 44.4 µM (inactive), the GI50 (HOP-92) was 18.3 µM (inactive) and the GI50 (A498) was 17.5 µM (inactive). The GI50 (MCF7) was 48.2 µM (inactive), the GI50 (786-0) was 39.4 µM (inactive) and the GI50 (Hs-578T) was 14.2 µM (inactive). For the same compound, the GI50 (T47D) was 10.8 µM (inactive), the GI50 (SF-295) was 30 µM (inactive) and the GI50 (MOLT-4) was 19.2 µM (inactive). For the same compound, the GI50 (SK-OV-3) was 14 µM (inactive) and the GI50 (SW-620) was > 100 µM (inactive).
For `COC(=O)C(CO)NC(=O)C(CSC(c1ccccc1)(c1ccccc1)c1ccccc1)NC(=O)OCc1ccccc1` (configuration not stated) (Cbz-Cys(Trt)-Ser-OMe; configuration not given here), the GI50 (OVCAR-8) was 14.5 µM (inactive), the GI50 (RPMI-8226) was 0.36 µM (active) and the GI50 (Malme-3M) was 14.5 µM (inactive). The GI50 (SF-539) was 12.1 µM (inactive), the GI50 (DU-145) was 19.1 µM (inactive) and the GI50 (NCI-H23) was 17.9 µM (inactive). For the same compound, the GI50 (NCI-H460) was 8.81 µM (inactive), the GI50 (SK-MEL-28) was 17 µM (inactive) and the GI50 (NCI-H522) was 15.5 µM (inactive). For the same compound, the GI50 (TK-10) was 24.5 µM (inactive), the GI50 (A549) was 13.4 µM (inactive) and the GI50 (CCRF-CEM) was 0.0398 µM (active). The GI50 (SK-MEL-5) was 15.1 µM (inactive), the GI50 (SNB-75) was 17.6 µM (inactive) and the GI50 (K562) was 15.3 µM (inactive). For the same compound, the GI50 (ACHN) was 21.2 µM (inactive), the GI50 (MDA-MB-231) was 13.8 µM (inactive) and the GI50 (OVCAR-3) was 13.6 µM (inactive). For the same compound, the GI50 (HL-60) was 5.75 µM (inactive), the GI50 (HT-29) was 11.4 µM (inactive) and the GI50 (EKVX) was 16 µM (inactive). For the same compound, the GI50 (HCT-116) was 12.3 µM (inactive), the GI50 (OVCAR-4) was 20.6 µM (inactive) and the GI50 (LOX IMVI) was 15.7 µM (inactive). The GI50 (U-251) was 16.7 µM (inactive), the GI50 (UACC-62) was 12.1 µM (inactive) and the GI50 (NCI-H226) was 12.2 µM (inactive). For the same compound, the GI50 (SK-MEL-2) was 16.9 µM (inactive), the GI50 (COLO 205) was 15.6 µM (inactive) and the GI50 (M14) was 19.4 µM (inactive). For the same compound, the GI50 (KM12) was 16.1 µM (inactive), the GI50 (HCT-15) was 19.2 µM and the GI50 (MDA-MB-435) was 15.2 µM (inactive). The GI50 (SR) was 0.158 µM (active), the GI50 (PC-3) was 12.3 µM (inactive) and the GI50 (OVCAR-5) was 17.7 µM (inactive). The GI50 (NCI/ADR-RES) was 16.8 µM (inactive), the GI50 (IGROV-1) was 16.8 µM (inactive) and the GI50 (SNB-19) was 19.5 µM (inactive). For the same compound, the GI50 (RXF 393) was 8.91 µM (inactive), the GI50 (CAKI-1) was 16.6 µM (inactive) and the GI50 (HOP-62) was 17.3 µM (inactive). For the same compound, the GI50 (HCC 2998) was 14.9 µM (inactive), the GI50 (SN12C) was 13.3 µM (inactive) and the GI50 (UO-31) was 14.5 µM (inactive). The GI50 (HOP-92) was 15.2 µM (inactive), the GI50 (MCF7) was 14.8 µM (inactive) and the GI50 (786-0) was 20.9 µM (inactive). The GI50 (SF-268) was 17.7 µM (inactive), the GI50 (Hs-578T) was 18.5 µM (inactive) and the GI50 (T47D) was 20.7 µM (inactive). The GI50 (SF-295) was 17.1 µM (inactive), the GI50 (MOLT-4) was 0.61 µM (active) and the GI50 (SK-OV-3) was 24.6 µM (inactive). The GI50 (SW-620) was 15.5 µM (inactive).
For `CCCCN(CCCC)CCC(O)c1cc2c(Cl)cc(Cl)cc2c2cc(C(F)(F)F)ccc12` (configuration not stated), the GI50 (OVCAR-8) was 14.3 µM (inactive), the GI50 (RPMI-8226) was 8.36 µM (inactive) and the GI50 (Malme-3M) was 16.4 µM (inactive). The GI50 (SF-539) was 9.4 µM (inactive), the GI50 (DU-145) was 10.3 µM (inactive) and the GI50 (NCI-H23) was 12.4 µM (inactive). The GI50 (NCI-H460) was 10.3 µM (inactive), the GI50 (SK-MEL-28) was 16.7 µM (inactive) and the GI50 (NCI-H522) was 17.5 µM (inactive). For the same compound, the GI50 (TK-10) was 13.4 µM (inactive), the GI50 (CCRF-CEM) was 11.2 µM (inactive) and the GI50 (SNB-75) was 11.7 µM (inactive). The GI50 (K562) was 6.73 µM (inactive), the GI50 (ACHN) was 12 µM (inactive) and the GI50 (MDA-MB-231) was 2.52 µM (inactive). The GI50 (UACC-257) was 14.5 µM (inactive), the GI50 (OVCAR-3) was 11.6 µM (inactive) and the GI50 (HL-60) was 5.9 µM (inactive). The GI50 (HT-29) was 13.6 µM (inactive), the GI50 (EKVX) was 14.5 µM (inactive) and the GI50 (HCT-116) was 12.2 µM (inactive). For the same compound, the GI50 (OVCAR-4) was 4.78 µM (inactive), the GI50 (LOX IMVI) was 6.52 µM (inactive) and the GI50 (U-251) was 14.4 µM (inactive). The GI50 (UACC-62) was 15 µM (inactive), the GI50 (SK-MEL-2) was 16.1 µM (inactive) and the GI50 (COLO 205) was 10.8 µM (inactive). The GI50 (M14) was 8.93 µM (inactive), the GI50 (HCT-15) was 5.4 µM and the GI50 (MDA-MB-435) was 12.6 µM (inactive). For the same compound, the GI50 (SR) was 10.3 µM (inactive), the GI50 (PC-3) was 10.1 µM (inactive) and the GI50 (OVCAR-5) was 12.9 µM (inactive). For the same compound, the GI50 (NCI/ADR-RES) was 12.1 µM (inactive), the GI50 (IGROV-1) was 12.7 µM (inactive) and the GI50 (SNB-19) was 19.1 µM (inactive). The GI50 (CAKI-1) was 12.2 µM (inactive), the GI50 (HOP-62) was 10 µM (inactive) and the GI50 (HCC 2998) was 11.7 µM (inactive). For the same compound, the GI50 (MDA-N) was 12.7 µM (inactive), the GI50 (SN12C) was 5.05 µM (inactive) and the GI50 (UO-31) was 4.2 µM (inactive). The GI50 (HOP-92) was 1.32 µM (inactive), the GI50 (A498) was 3.59 µM (inactive) and the GI50 (MCF7) was 10.2 µM (inactive). The GI50 (786-0) was 12.9 µM (inactive), the GI50 (SF-268) was 11.7 µM (inactive) and the GI50 (T47D) was 12.8 µM (inactive). For the same compound, the GI50 (SF-295) was 12.4 µM (inactive), the GI50 (MOLT-4) was 8.57 µM (inactive) and the GI50 (SK-OV-3) was 14 µM (inactive). For the same compound, the GI50 (SW-620) was 11.3 µM (inactive).
